One may read the AC50 as the midpoint of the concentration-response curve, whichever way the signal moves. A lower AC50 goes with greater potency.

These results are taken from PubChem BioAssay AID743267 (Broad Institute, 2014).

Bounds are passed on as bounds.

One assay has as its system human bronchial epithelial cells, CFTR corrector, plate reader. Put plainly: CFTR ΔF508 corrector activity in bronchial cells, dose response, human bronchial epithelial cells, plate reader, cherry-pick, two tests (AID 743267). The following applies: measured here: test 1 replicate run.
In turn, `CN1c2ccc(-c3ccc(F)cc3)cc2[C@H]2[C@H](CCN2S(=O)(=O)c2cccc(F)c2)[C@H]1CO` gave a half-maximal activity concentration (AC50) of 4.41 µM.

The molecule `Cc1ccc(-c2ccc3c(c2)O[C@H](CN(C)Cc2ccccn2)[C@@H](C)CN([C@H](C)CO)S3(=O)=O)cc1` gave an AC50 of 5.08 µM. The AC50 values of the last two molecules are within 1.5-fold of each other. Same read-out and setting: next, `COc1ccc(S(=O)(=O)N2CC[C@@H]3[C@@H](CO)Nc4ccc(-c5cccc(C#N)c5)cc4[C@@H]32)cc1`: 16 µM; `CS(=O)(=O)N1CC(=O)N2[C@H](C1)[C@H](c1ccc(C#Cc3ccc(F)cc3)cc1)[C@@H]2CO`: 23.9 µM; `COC(=O)C[C@@H]1CC[C@@H]2[C@H](COc3ccc(NC(=O)c4ccc(C(F)(F)F)cc4)cc3C(=O)N2C)O1`: 19.2 µM. In the case of `C[C@@H]1CN([C@@H](C)CO)C(=O)Cc2cc(N(C)C)ccc2O[C@@H]1CN(C)Cc1ccc(C(=O)Nc2ccccc2N)cc1`, the concentration at half-maximal activity (AC50) was 10.3 µM. The same measure, in the same setting: next, `COc1ccc(CNC(=O)c2cc3c(c(-c4cccc(-c5ccc(C#N)cc5)c4)n2)[C@@H](CCO)N([S@](=O)C(C)(C)C)C3)cc1`: greater than 50 µM. `Cc1ccc(-c2ccc3c(c2)O[C@H](CN(C)C(=O)Nc2ccc(C(F)(F)F)cc2)[C@@H](C)CN([C@@H](C)CO)S3(=O)=O)cc1` displayed an AC50 greater than 50 µM. Still for that read-out and setting: in the case of `O=C(C1CCCC1)N1CC(=O)N2[C@H](CO)[C@@H](c3ccc(-c4ccccc4F)cc3)[C@@H]2C1` it was 4.47 µM; in that of `CCS(=O)(=O)N1CC(=O)N2[C@H](CO)[C@@H](c3ccc(C#CCC(C)C)cc3)[C@@H]2C1`, 0.0676 µM.

The assay is the same for the next values; noted with them: measured here: test 2 replicate run.
The molecule `O=C(CN(Cc1ccco1)Cc1ccco1)Nc1cc(S(=O)(=O)N2CCCCC2)ccc1Cl` registered an AC50 of 17.2 µM. Still for that read-out and setting: in the case of `O=C1CCC(CCc2nc3ccccc3[nH]2)(c2ccccc2)C(=O)N1` (configuration not stated) it was 36.3 µM. Still for that read-out and setting: next, `COc1cc2c(cc1OC)C(c1cccs1)N(C(=O)c1cccnc1)CC2` (configuration not stated): 4.9 µM.

`COc1ccccc1/C=N/NC(=O)c1cc2c(OC)c(OC)ccc2[nH]1`: the AC50 is 0.802 µM. This AC50 lies about 6.1-fold lower than the previous one. Still for that read-out and setting: next, `COc1ccc(NC(=O)C2(C)Cc3c(-c4cccc(NC(C)=O)c4)ccnc3O2)cc1` (configuration not stated): 4.58 µM; `Cc1cc2c(cc1C)C(c1ccccc1OC(C)C)CC(=O)N2` (configuration not stated): 1.85 µM; `CN[C@H]1CCc2cc(OC)c(OC)c(OC)c2-c2ccc(N(C)CC(OC)OC)c(=O)cc21`: 3.25 µM. Take `N#CCC(=O)N/N=C/c1cn(Cc2cccc3ccccc23)c2ccccc12`: the concentration at half-maximal activity (AC50) came to 2.86 µM. Consider `COc1cc(C#Cc2ccc3cc(CCCO)oc(=O)c3c2)cc(OC)c1`, for which the AC50 turned out to be 10.3 µM. Compared with the last molecule, the AC50 is about 3.6-fold higher.

As to `Cc1cc2oc(C(=O)NCCc3ccc(S(N)(=O)=O)cc3)c(C)c2cc1C`, the AC50 was found to be 0.901 µM.

`O=C(CN1C(=O)NC2(CCCCCCC2)C1=O)Nc1ccc(Br)cc1` gave an AC50 of 1.13 µM. The same measure, in the same setting: in the case of `Cc1ccc(N2C(=O)c3cccc4c([N+](=O)[O-])ccc(c34)C2=O)c2cccnc12` it was 18.8 µM; in that of `CCOC(=O)c1c(C)[nH]c(C(=O)N/N=C/c2ccc(OC)c(OC)c2)c1C`, 2.93 µM. Same read-out and setting: next, `COc1cc(/C=C/C(=O)c2ccc3c(c2)OCO3)cc(Cl)c1O`: 15.6 µM; `CC/C=C/CC(=O)N[C@@H](c1ccccc1)[C@@H](O)C(=O)O[C@H]1C[C@@]2(O)[C@@H](OC(=O)c3ccccc3)C3[C@](C)(C(=O)[C@H](OC(C)=O)C(=C1C)C2(C)C)[C@@H](O)C[C@H]1OC[C@@]31OC(C)=O` (some centres not stated): 3.4 µM; `CC(C)Oc1ncnc2c1[nH]c1ccccc12`: 9.38 µM. On the same count and under the same terms, next, `Cc1ccc(S(=O)(=O)NCc2ccccc2)cc1C(=O)N1CC(C)CC(C)C1` (configuration not stated): greater than 50 µM.

With `CO/N=C\CC(=O)Nc1ccc(Cl)cc1Cl`, the AC50 turned out to be 30.9 µM. Same read-out and setting: in the case of `O=S(=O)(Cc1ccc(Cl)cc1Cl)c1ccc(Cl)cc1` it was 2.72 µM. On the same count and under the same terms, next, `COc1cc(OC)c(-c2c3cc(O)c(=O)cc-3oc3cc(O)c(O)cc23)cc1OC`: 8.08 µM. On the same count and under the same terms, in the case of `CCCCNC(=O)C(=O)Nc1ccc2c(c1)N(S(=O)(=O)c1cccs1)CCC2` it was 1.89 µM.

For `O=C(Nc1cccc(C2=NCCN2)c1)Nc1cccc(C2=NCCN2)c1`, the half-maximal activity concentration (AC50) was 20.7 µM. The same measure, in the same setting: next, `COc1ccc2sc3cccc(NCCN(C)C)c3c(=O)c2c1`: 8.47 µM; `O=C1C=C(NCCc2cc(Br)c(O)c(Br)c2)C(=O)c2ncccc21`: 3.33 µM. Still for that read-out and setting: in the case of `COC(=O)c1ccc(S(=O)(=O)N2CCc3ccccc32)cc1` it was 19.1 µM. Same read-out and setting: next, `COc1ccc(NC(=O)c2cc(S(=O)(=O)N3CCOCC3)ccc2C)cc1S(=O)(=O)N1CCOCC1`: greater than 50 µM; `COc1ccc(/C(C)=N/NC(=O)c2cccc(S(=O)(=O)N3CCCC3)c2)c(O)c1`: greater than 50 µM; `NS(=O)(=O)c1ccc(NC(=O)c2cccc3cc4ccccc4nc23)cc1`: 4.75 µM. Regarding `O=c1cc(-c2ccccc2)[nH]c2ccc(F)cc12`, the half-maximal activity concentration (AC50) is greater than 50 µM.

With `O=C1c2cccc3c(N4CCCCC4)ccc(c23)C(=O)N1c1cccc(O)c1`, the AC50 was found to be 24.3 µM.

On to `CCOC(=O)c1[nH]c(C)c(/C(O)=C2\C(=O)C(=O)N(CCCN3CCOCC3)C2c2cccs2)c1C` (configuration not stated), for which the half-maximal activity concentration (AC50) was 19.4 µM. Same read-out and setting: in the case of `COc1ccc(CNS(=O)(=O)c2cc(-c3cc(C)no3)ccc2C(C)C)cc1` it was 2.16 µM. The same measure, in the same setting: next, `O=C(NCc1ccccc1)C1Cc2c(-c3cccc(F)c3)ccnc2O1` (configuration not stated): 0.893 µM; `O=S1(=O)CCN(C(CO)c2ccccc2)CC1` (configuration not stated): 43.3 µM; `C/C(=N\NC(=O)c1cc(-c2cccs2)nc2ccccc12)c1ccccn1`: 2.45 µM. On the same count and under the same terms, in the case of `CCN(c1cccc(C)c1)S(=O)(=O)c1ccc(-c2cc(C)no2)s1` it was 5.94 µM. As for `Cn1cc(C(=O)N/N=C/c2ccc3c(c2)OCO3)c2ccccc21`, the AC50 amounted to 9.88 µM.

Molecule `Cc1cc(NCc2ccccn2)n2nc(C)c(-c3ccccc3)c2n1` gave an AC50 of 4.77 µM. The molecule `CCN(CC)c1ccc(/C=N/NC(=O)c2cnccn2)c(O)c1` displayed a concentration at half-maximal activity (AC50) of 2.2 µM.

For the molecule `CC(Sc1nc2ccccc2c(=O)n1C)C(=O)Nc1ccc2c(c1)OCCO2` (configuration not stated), the AC50 was greater than 50 µM. With `CCOc1ccc2[nH]c(C(=O)N/N=C/c3ccc(OC)cc3)cc2c1`, the AC50 stood at 36.4 µM. Still for that read-out and setting: in the case of `Cc1nn(C)c(C)c1/C=C/C(=O)O` it was greater than 50 µM.

As for `CN(C)CCNc1ccc2ncn3c4ccc(O)cc4c(=O)c1c23`, the half-maximal activity concentration (AC50) stood at 2.03 µM. This counts as single-digit micromolar. `CCCCn1cnc2c(c(CC#N)nn2-c2ccccc2)c1=N` displayed a half-maximal activity concentration (AC50) greater than 50 µM. On to `Cc1ccc(-c2cccc(CN3CCN(C(C)C)C(CCO)C3)c2)o1` (configuration not stated), for which the AC50 is greater than 50 µM. The same measure, in the same setting: next, `COc1ccc(OC)c(-c2cnc(OC(C)(C)C)nc2OC(C)(C)C)c1`: 13.9 µM; `COc1ccc(COc2cc(-c3cccc(OC)c3)nc3ccc(NC(=O)c4ccc(OC)cc4)cc23)cc1`: 1.89 µM. `O=C(NCCOc1ccccc1)c1cc([N+](=O)[O-])ccc1N1CCOCC1` yielded an AC50 of 2.66 µM. Still for that read-out and setting: in the case of `COc1ccc(C2=NOC(C(=O)NCc3ccc(F)cc3)C2)cc1OC` (configuration not stated) it was 1.06 µM.

For the molecule `COc1ccc(Cl)cc1NC(=O)CN(C)CC(=O)Nc1cc(OC)c(OC)c(OC)c1`, the half-maximal activity concentration (AC50) came to 8.47 µM. The same measure, in the same setting: next, `COc1ccc2cc(CN(CC3CCCO3)C(=S)Nc3ccccc3)c(=O)[nH]c2c1` (configuration not stated): greater than 50 µM; `CCOc1ccc(C)cc1S(=O)(=O)n1cnc2ccccc21`: 8.08 µM; `O=[N+]([O-])c1ccc(N2CCOCC2)c2c1no[n+]2[O-]`: 2.76 µM. Still for that read-out and setting: in the case of `COc1ccc(-c2cc(C(F)F)n3ncc(C(=O)N4CCc5ccccc54)c3n2)cc1` it was 16.1 µM; in that of `O=C(Nc1ccccc1)c1nc[nH]c1C(=O)Nc1ccccc1F`, 28.3 µM; in that of `Cc1cnc(NC(=O)c2ccc3c(c2)OCCO3)s1`, 4.71 µM. Still for that read-out and setting: next, `COC(=O)c1ccc(C(=O)NC2CCCc3c2cnn3-c2cc(F)cc(F)c2)nc1` (configuration not stated): 8.13 µM; `CC1(C)Cc2c(c(-c3ccco3)nc3sc4c(NCCN5CCOCC5)ncnc4c23)CO1`: 3.92 µM.

Turning to `CC(=O)c1ccc(Nc2cc(C)nc3c(C)cc(C)cc23)cc1`, the concentration at half-maximal activity (AC50) stood at 3.11 µM. On the same count and under the same terms, next, `CC[n+]1c(-c2ccccc2)c2cc(N)ccc2c2ccc(N)cc21`: 7.74 µM; `N=c1sccn1CC(=O)Nc1ccc(S(N)(=O)=O)cc1`: 14.9 µM; `CCOC(=O)c1ccc(-c2c(-c3cc(OC)c(OC)c(OC)c3)noc2C)cc1F`: 1.2 µM. Regarding `Cc1cccc(N2CCN(C(=O)c3ccc4[nH]c(C)c(C)c4c3)CC2)c1C`, the concentration at half-maximal activity (AC50) came out at 1.85 µM. Against the preceding molecule, the AC50 is about 1.5-fold higher. On the same count and under the same terms, next, `COc1cccc(N2CCN(C(=O)c3ccc(CS(=O)c4ccc(Cl)cc4)o3)CC2)c1` (configuration not stated): 1.48 µM; `Cc1nc(/N=C(\N)NC(=O)NC2CCCCC2)nc2ccccc12`: 2.76 µM; `CCN1CCN(c2cc(C)c3cc(NC(=O)c4ccc(OC)c(OC)c4)ccc3n2)CC1`: 1.61 µM. Take `COc1ccc(CC(=O)NCc2ccc(-n3cccc3)cc2)cc1OC`: the concentration at half-maximal activity (AC50) was 3.53 µM. Against the preceding molecule, the AC50 is about 2.2-fold higher. Still for that read-out and setting: in the case of `COc1ccc(CNCC(=O)Nc2ccccc2-n2cccc2)cc1` it was 6.21 µM.

The molecule `CC(=O)Nc1ccc2cc3ccc(NC(C)=O)cc3nc2c1` registered an AC50 of 18.1 µM. On the same count and under the same terms, in the case of `Cc1c(C(=O)N/N=C/c2c(O)ccc3ccccc23)nnn1-c1nonc1N` it was 0.462 µM; in that of `O=C(CSC1=NNC(c2ccccn2)S1)Nc1ccccc1` (configuration not stated), greater than 50 µM; in that of `COc1ccc(S(=O)(=O)NCc2ccccn2)cc1NC(=O)c1ccccc1F`, 1.32 µM. `COc1nc(N)nc(NC(=O)c2cccs2)c1N=O` came in with a half-maximal activity concentration (AC50) of 16 µM. Still for that read-out and setting: in the case of `CCOC(=O)N1CCN(C(=O)C2CCC(=O)N(CCCN3CCCC3=O)C2)CC1` (configuration not stated) it was 10.5 µM. The same measure, in the same setting: next, `COc1cccc(/C=N/NC(=O)C(=O)Nc2ccccc2OC(F)(F)C(F)F)c1O`: 9.39 µM. `O=C(Nc1ccc(Cl)cn1)c1cccc2ccccc12` had an AC50 of 8.46 µM. With `O=C(O)CCCCCCCCc1cn(Cc2ccc(C(=O)c3ccccc3)cc2)nn1`, the AC50 is 2.17 µM. In turn, `COc1ccccc1NC(=O)C(=O)NCC(c1ccco1)N1CCc2ccccc21` (configuration not stated) yielded an AC50 greater than 50 µM.

The molecule `O=C(NCCCN1CCOCC1)c1cc(S(=O)(=O)N2CCOCC2)c(Cl)cc1Cl` yielded an AC50 greater than 50 µM. In turn, `Cc1nc(NCc2cccnc2)c2c3c(sc2n1)CCCC3` had a concentration at half-maximal activity (AC50) of 7.38 µM. That is a single-digit micromolar value.

`Cc1cc(C)c2nc(Cl)c(CN(Cc3ccco3)C(=O)Nc3ccccc3C)cc2c1`: the half-maximal activity concentration (AC50) was 2.87 µM. The same measure, in the same setting: in the case of `O=C(c1cccc(S(=O)(=O)N2CCOCC2)c1)N1CCCC(C(F)(F)F)C1` (configuration not stated) it was 39.2 µM.
